Read-outs that look alike come from different tables or passages of the source.

The test system of series [1] is HSV-1/HSV-2. As to the kind of experiment: Infectious viral yield, HSV-1/HSV-2 in Vero cells (text, type not separated). The class given is cell-based.
The subject of series [2] is Vero cells. Briefly: Cytotoxicity on Vero cells, microscopic observation of cell monolayer morphology. Conditions: 72 h.
Experimental: For analysis of the anti-proliferative and potentially antiviral properties of the IPF-H2A complex, according to the present invention, in cell culture, IPF-H2A was dissolved to an initial concentration of 50 mg/ml (background solution). Using the solution, a series of dilutions are done ex tempore with a nutrient medium DMEM (Dulbecco's Modified Eagle Medium, Sigma-Aldrich, Germany), which includes 2% fetal bovine serum (FBS, Gibco) and 1% antibiotic solution (100 U/ml penicillin and 100 µg/ml streptomycin sulphate (Gibco, USA)) (working solutions), which solutions are then filtered through sterile antibacterial filters with a pore diameter of 0.45 µm. As a model system in the tests was used a kidney monolayer cell line of African Green Monkey (Cercopithecus aethiops). […]
The subject of series [3] is HSV-1 (Victoria strain). Briefly: Infectious viral yield of HSV-1 in Vero cells (Reed and Muench titration).
Experimental: (§1) Viral strains were cultured in DMEM nutrient medium containing 2% FBS,1% antibiotic solution (100 U/ml penicillin G sodium and 100 µg/ml streptomycin sulphate).
(§2) Infectious virus titer was account for, also by Reed and Muench's method of final dilutions, and expressed as TCID50 (50% Tissue Culture Infectious Dose) and also quantitatively through the colorimetric MTT method. After triple freezing and thawing, the resulting virus- containing was centrifuged (2500 rpm/min, 15 min at 4 °C), aliquoted and frozen at -80°C.
(§3) Immediately prior to work, ten-fold logarithmic dilutions of the relevant virus strain were prepared in DMEM nutrient medium containing 2% FBS, 1% antibiotic solution (100 U/mL penicillin G sodium and 100 µg/mL streptomycin sulphate). When the cell monolayer reached between 70- 80% confluence (concentration 5 × 10^3 cells/well, usually after 24 h), the nutrient medium was removed from the wells. The cell monolayer was infected with the prepared viral dilutions of 0.1 mL. With each viral dilution, 4 wells were infected. The virus was adsorbed for 1 h ina thermostat at a temperature of 37°C, then to each well was added 0.1 mL of nutrient medium. Four wells containing uninfected cells were used for cell control. Thus treated plate was incubated in a thermostat at a temperature of 37°C and at the required humidity. In the event of a cytopathic effect (CPE) (appearance of round cells, unevenly disseminated in the cell monolayer, with a tendency to formfoci), it was waited until the development of 2-3 + (50 - 75% of the cell monolayer) or until it stopped progressing. The viral infection titer is expressed as TCID50 (50% Tissue Culture Infectious Dose). The presence or absence of a viral cytopathic effect is determined by the following formula: T = (logofdilution,where%infectedisover50%) + (proportionalityfactor×logofdilutionfactor). […] Proportionality factor = [(%infectedover50%)−50%][(%infectedover50%)−(% infected below; 50%)].
(§4) Extracellular virus samples were titrated in a 24-hour Vero monolayer in 96-well plates, by taking into account the infectious viral titer in log10, according to the final dilution method of Reed & Muenh. Differences in infectious viral titers between experimental and control samples are expressed as Δlog. Based on the reported results, dose-response graphs were plotted and minimum inhibitory concentrations 50 (MIC50) were determined. Values of Δlog10 ≥ 1 are considered to be reliable results for the performed tests.
For another series, the system named is HSV-2 (Bja strain). As to the kind of experiment: Infectious viral yield of HSV-2 in Vero cells (Reed and Muench titration).
Series [4] relates to HSV-1/HSV-2. As to the kind of experiment: CPE inhibition test, microscopic, HSV-1/HSV-2 in Vero cells (type not separated). Conditions: infected Vero cells, at MNC, 72 hours of treatment. The class given is cell-based. The method, then:
Dose-dependent curves were derived to determine the inhibitory concentration leading to 50% inhibition of the viral cytopathic effect (IC50).
Initially, the antiviral activity of the IPF test substance was assessed by a CPE inhibition test. […] Cell cultures were observed daily under a light microscope as to theCPE development. […] The results of the experiments were evaluated on the basis of comparison with virus-free and no-added cells (cell control),and with cells infected with HSV-1/HSV-2 without substance addition (viral control).

The subject of series [5] is Vero cells. As to the kind of experiment: Cytotoxicity on Vero cells, MTT Assay. Conditions: 72 h.
Experimental: Using the solution, a series of dilutions are done ex tempore with a nutrient medium DMEM (Dulbecco's Modified Eagle Medium, Sigma-Aldrich, Germany), which includes 2% fetal bovine serum (FBS, Gibco) and 1% antibiotic solution (100 U/ml penicillin and 100 µg/ml streptomycin sulphate (Gibco, USA)) (working solutions), which solutions are then filtered through sterile antibacterial filters with a pore diameter of 0.45 µm. As a model system in the tests was used a kidney monolayer cell line of African Green Monkey (Cercopithecus aethiops).
Cells were cultured on DMEM nutrient medium with termoinactivated 10% FBS, 1% sodium pyruvate (Sigma- Aldrich, Germany) and antibiotics (penicillin (100 U/ml), streptomycin sulphate (100 µg/ml) (growingmedium). The cell cultures were incubated at 37 °C at 5% CO2 and the required humidity. The blending of the Vero cells was done at 1:3 - 1:5 at a density of about 2 × 10^5 cells/ml, then resuspended several times and transferred onto cell culture mattresses (25 cm^2). Before inoculating the cells with virus and/or IPF-H2A dilutions, the monolayer was washed three times with phosphate-buffered saline (PBS) with pH 7.4 for 1- 2 minutes, after which the solution was removed. All experiments were performed during the exponential phase of cell growth. […]
Series [6] has as its system HSV-1 (Victoria strain). Briefly: CPE inhibition test with MTT Assay, HSV-1 in Vero cells. The series is classed as cell-based, Herpes Simplex virus type 1 (HSV-1).
In series [7] the test system is HCoV-229E. The series is classed as cell-based, human coronavirus HCoV-229E. Conditions: for Δlog10: HCoV-229E, vs virus control.
The test system of series [8] is HCoV-229E. The series is classed as cell-based, human coronavirus HCoV-229E.
For series [9], the system named is human embryonic lung (Lep) cell line. As to the kind of experiment: Cytotoxicity on Lep cells, microscopic surveillance of cell monolayer morphology. As to conditions: 96 hours.
Experimental: As a model system is used monolayer of human embryonic lung (Lep) cell line. The cells are cultivated in DMEM with added thermally inactivated 10% FBS, 1% Sodium pyruvate (Sigma-Aldrich, Germany) and antibiotics (penicillin- 100 U/ml), streptomycin sulphate (100 µg/ml) (growth medium) and the cell cultures are incubated at 37°C in 5% CO2 and in the presence of the required humidity.
MTT analysis of the cell survival and proliferation was performed in a wide range of concentrations of the tested substance. […] The test substance is applied in concentration range 0.0001- 1 mg/ml, while the anti-nfluenza medicine Tamiflu® - 0.001- 7.5 mg/ml for 96 hours. The untreated Lep cells whose survival was accepted as 100%, were used as a negative control. […] The analysis of the cell morphology surveillance is synchronized with the MTT analysis of the cell surveillance.
For series [10] the test system is unchanged. As to the kind of experiment: Cytotoxicity on Lep cells, MTT test. On the set-up: CD50: unit not given beside the values. (Tetrazolium assays rely on reduction of a dye to a coloured formazan, in cell work by metabolically active cells.)

Experimental for HSV-2 (Bja strain): as §1, §2, §3, §4

For the compound `Nc1nc2c(ncn2COCCO)c(=O)[nH]1` [ACV, 2-amino-1,9-dihydro-9-((2-hydroxyethoxy)methyl)-6H-purin-6-one], the “concentration range that effectively inhibits the yield of infectious viral progeny / replication” value with HSV-1/HSV-2 [1] fell in the range of 0.00001 to 1 mg/mL. Also, the CD50 with Vero cells [2] is recorded as 0.5 ± 0.02 mg/mL; with Vero cells [5] it was 0.5 ± 0.1 mg/mL. The “Viral yield (log10 TCID50)” value with HSV-1 (Victoria strain) [3] (concentration 0.0005 mg/mL) was determined as 4.500 ± 0.763 log10 TCID50; in the series with HSV-1 (Victoria strain) [3] (concentration 0.005 mg/mL) it was 4.530 ± 0.166 log10 TCID50; in the series with HSV-1 (Victoria strain) [3] (concentration 0.05 mg/mL), 4.300 ± 0.763 log10 TCID50; with HSV-1 (Victoria strain) [3] (concentration 0.1 mg/mL) it was 4.000 ± 0.288 log10 TCID50; with HSV-1 (Victoria strain) [3] (concentration 1 mg/mL) it was 2.7 ± 0.500 log10 TCID50; in the series on HSV-2 (Bja strain) (concentration 0.0005 mg/mL), 5.567 ± 0.000 log10 TCID50. In addition, the “Viral yield (log10 TCID50)” value in the series with HSV-2 (Bja strain) (concentration 0.005 mg/mL) came to 5.300 ± 0.288 log10 TCID50; with HSV-2 (Bja strain) (concentration 0.05 mg/mL), 4.500 ± 0.125 log10 TCID50; in the series with HSV-2 (Bja strain) (concentration 0.1 mg/mL), 4.300 ± 0.237 log10 TCID50; in the series on HSV-2 (Bja strain) (concentration 1 mg/mL), 4.005 ± 0.166 log10 TCID50. Also, the Δlog10 with HSV-1 (Victoria strain) [3] (concentration 0.0005 mg/mL) was 0.8; in the series with HSV-1 (Victoria strain) [3] (concentration 0.005 mg/mL) it was 0.8; in the series on HSV-1 (Victoria strain) [3] (concentration 0.05 mg/mL), 1.0; with HSV-1 (Victoria strain) [3] (concentration 0.1 mg/mL) it was 1.6; in the series with HSV-1 (Victoria strain) [3] (concentration 1 mg/mL), 2.6; in the series on HSV-2 (Bja strain) (concentration 0.005 mg/mL), 0.8. The Δlog10 with HSV-2 (Bja strain) (concentration 0.05 mg/mL) amounted to 1.0; in the series with HSV-2 (Bja strain) (concentration 0.1 mg/mL), 1.0; in the series with HSV-2 (Bja strain) (concentration 1 mg/mL), 1.3. In the series on HSV-1/HSV-2 [4], the “CPE suppression of HSV-1/HSV-2” value is listed as “less pronounced CPE inhibitory effect”. The “% cellular protection at MNC” value in the series on HSV-1 (Victoria strain) [6] (HSV-1 (Victoria strain), Vero cells, MTT Assay) was 100%. For the same compound, the protection in the series on HSV-1 (Victoria strain) [6] (HSV-1 strain Victoria, concentration range of 0.0005- 0.01 mg/mL) is on record as 100%.

For `CCOC(=O)C1=C[C@@H](OC(CC)CC)[C@H](NC(C)=O)[C@@H](N)C1` [Tamiflu, oseltamivir phosphate], in the series on HCoV-229E [7], the “concentration range that effectively inhibits the infectious viral yield / replication” value is 0.00001 to 1 mg/mL. For the same compound, the Δlog10 in the series with HCoV-229E [7] (concentration 0.0001 mg/ml) was 0.8; in the series with HCoV-229E [7] (concentration 0.001 mg/ml), 1.3; in the series with HCoV-229E [7] (concentration 0.01 mg/ml) it was 1.3; in the series with HCoV-229E [7] (concentration 0.1 mg/ml) it was 1.3; with HCoV-229E [7] (concentration 1.0 mg/ml), 1.8. Also, the “inhibition of CPE of HCoV-229E” value with HCoV-229E [8] is recorded as “Less expressed CPE inhibition”. Besides, the CD50 in series [9] came to 2.5 ±0.02; in series [10] (96 hours, MTT test) it was 2.5 ±0.06. In addition, the MNC in series [9] is 0.001 ± 0.6 mg/mL; in series [10] (96 hours, MTT test) it was 0.005 ± 0.15 mg/mL. For the same compound, the “toxicity relative to IPF-H2A peptide complex” value in [10] (comparison of cell survival data) was “twentyfold more toxic”.
